Measured values taken from US5686486A, “4-hydroxy-benzopyran-2-ones and 4-hydroxy-cycloalkyl[b]pyran-2-ones useful to treat retroviral infections” (priority 1995, dated 1997).
Several values for one entry are separate records, joined by “and”; a condition that tells them apart may be missing. Identical values can stand only once.

Assays:
[1] = molecular target: T1, HIV-1 protease (Human immunodeficiency virus type 1 group M subtype B, UniProt P04585); experiment: biochemical; conditions: for inhibition at 0.123 µM: read-out: HIV-1 Protease % Inhib, dose 0.123 uM; for inhibition at 0.37 µM: read-out: HIV-1 Protease % Inhib, dose 0.370 uM; for inhibition at 1.1 µM: read-out: HIV-1 Protease % Inhib, dose 1.100 uM; for inhibition at 3.3 µM: read-out: HIV-1 Protease % Inhib, dose 3.300 uM; for inhibition at 10 µM: read-out: HIV-1 Protease % Inhib, dose 10.000 uM; for inhibition at 30 µM: read-out: HIV-1 Protease % Inhib, dose 30.000 uM; for inhibition at 1 µM: read-out: HIV-1 Protease % Inhib, dose 1.000 uM; for inhibition at 100 µM: read-out: HIV-1 Protease % Inhib, dose 100.000 uM
Method in brief: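 Biotinylated, FITC-labeled peptide substrate (20 μl of 0.2 μM) incubated with HIV-1 protease (10 μl of 0.1 μM) and compound in 0.1 M sodium acetate pH 5.5, 1.0 M NaCl, 0.05% NP-40, 1 h, room temperature, dark. Streptavidin beads then capture uncleaved substrate; filtered labeled product read by fluorescence, giving percent inhibition.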

[2] = molecular target: T1, HIV-1 protease; experiment: biochemical; conditions: read-out: HIV-1 FITC KI
Description: Determination of Ki values utilizes the same materials and equipment employed for percent inhibition studies. Two-fold serial dilutions are made for a given inhibitor from 2, 3 or 4 starting concentrations with a total of 24, 36 or 48 individual inhibitor concentrations. These dilutions are performed utilizing the BioMek robotics system. The assay consists of 10 μL of 40 nM HIV-1 protease, 10 μL of the various inhibitor concentrations, and 20 μL of 200 μM substrate (40 μL total). The reaction is allowed to proceed for 90 min at room temperature, terminated with 40 μL of avidin beads and processed (supra vide). An inhibitor with a known Ki is run in parallel to verify the validity of the assay. The data is processed utilizing a computer program employing a nonlinear least square analysis of the data to generate the Ki values.

CCCC1CCCCCc2c1oc(=O)c([C@@H](c1ccccc1)C1CC1)c2O (mixture of isomers) [Example 232, 3-(R)-(Cyclopropylphenylmethyl)-4-hydroxy-10-(R and S)-propyl-5,6,7,8,9,10-hexahydro-cycloocta[b]pyran-2-one]
inhibition at 0.123 µM [1]: 19.3% | inhibition at 0.37 µM [1]: 51.2% | inhibition at 1.1 µM [1]: 80.4% | inhibition at 3.3 µM [1]: 95.3% | inhibition at 10 µM [1]: 104% | inhibition at 30 µM [1]: 95% | Ki [2]: 30 nM

CCCC1CCCCCc2c1oc(=O)c([C@H](c1ccccc1)C1CC1)c2O (mixture of isomers) [Example 235, 3-(S)-(Cyclopropylphenylmethyl)-4-hydroxy-10-(R and S)-propyl-5,6,7,8,9,10-hexahydro-cycloocta[b]pyran-2-one]
inhibition at 0.123 µM [1]: 24.8% | inhibition at 0.37 µM [1]: 71.8% | inhibition at 1.1 µM [1]: 92.7% | inhibition at 3.3 µM [1]: 105% | inhibition at 10 µM [1]: 103% | inhibition at 30 µM [1]: 99.5% | Ki [2]: 11 nM

O=c1oc2c(c(O)c1C(c1ccccc1)C1CC1)CCCCCC2CC1CCCO1 (single isomer, unassigned) [Example 170, 3-(Cyclopropylphenylmethyl)-5,6,7,8,9,10-hexahydro-4-hydroxy-10-[(tetrahydro-2-furanyl)methyl]-2H-cycloocta[b]pyran-2-one]
inhibition at 0.123 µM [1]: 23.2% | inhibition at 0.37 µM [1]: 62.3% | inhibition at 1.1 µM [1]: 92.5% | inhibition at 3.3 µM [1]: 99.3% | inhibition at 10 µM [1]: 107% | inhibition at 30 µM [1]: 111% | Ki [2]: 31 nM

O=c1oc2c(c(O)c1C(c1ccccc1)C1CC1)CCCCCC2CC1CCCO1 (single isomer, unassigned) [Example 171, 3-(Cyclopropylphenylmethyl)-5,6,7,8,9,10-hexahydro-4-hydroxy-10-[(tetrahydro-2-furanyl)methyl]-2H-cycloocta[b]pyran-2-one]
HIV-1 Protease % Inhib ([1]; dose 0.123 uM): 33.13% | HIV-1 Protease % Inhib ([1]; dose 0.370 uM): 73.44% | HIV-1 Protease % Inhib ([1]; dose 1.100 uM): 96.52% | HIV-1 Protease % Inhib ([1]; dose 3.300 uM): 103.16% | HIV-1 Protease % Inhib ([1]; dose 10.000 uM): 109.98% | HIV-1 Protease % Inhib ([1]; dose 30.000 uM): 108.64% | Ki [2]: 23 nM

CC(C)(C)OC(=O)NCC(=O)Nc1cccc(C(c2c(O)c3c(oc2=O)CCCCCC3)C2CC2)c1 (single isomer, unassigned) [Example 238, Carbamic acid, [2-[[3-(R or S)-[cyclopropyl(5,6,7,8,9,10-hexahydro-4-hydroxy-2-oxo-2H-cycloocta[b]pyran-3-yl)methyl]phenyl]amino]-2-oxoethyl]-, 1,1-dimethyl ethyl ester]
HIV-1 Protease % Inhib ([1]; dose 0.123 uM): 30.5% | inhibition at 0.37 µM [1]: 76.4% | inhibition at 1.1 µM [1]: 96.3% | inhibition at 3.3 µM [1]: 99.9% | inhibition at 10 µM [1]: 116% | inhibition at 30 µM [1]: 115% | Ki [2]: 13.4 nM

CC(C)(C)OC(=O)NCC(=O)Nc1cccc(C(c2c(O)c3c(oc2=O)CCCCCC3)C2CC2)c1 (single isomer, unassigned) [Example 239, Carbamic acid, [2-[[3-(R or S)-[cyclopropyl(5,6,7,8,9,10)-hexahydro-4-hydroxy-2-oxo-2H-cycloocta[b]pyran-3-yl)methyl]phenyl]amino]-2-oxoethyl]-, 1,1-dimethyl ethyl ester]
HIV-1 Protease % Inhib ([1]; dose 0.123 uM): 69.55% | HIV-1 Protease % Inhib ([1]; dose 0.370 uM): 88.01% | HIV-1 Protease % Inhib ([1]; dose 1.100 uM): 98.34% | HIV-1 Protease % Inhib ([1]; dose 3.300 uM): 102.72% | HIV-1 Protease % Inhib ([1]; dose 10.000 uM): 107.4% | HIV-1 Protease % Inhib ([1]; dose 30.000 uM): 100.72% | Ki [2]: 2.2 nM

CC(C)(C)OC(=O)N[C@@H](Cc1c[nH]cn1)C(=O)Nc1cccc(C(c2c(O)c3c(oc2=O)CCCCCC3)C2CC2)c1 (single isomer, unassigned) [Example 240, Carbamic acid, [2-[[3-(R or S)-[cyclopropyl(5,6,7,8,9,10-hexahydro-4-hydroxy-2-oxo-2H-cycloocta[b]pyran-3-yl)methyl]phenyl]amino]-1-(S)-(1H-imidazol-4-ylmethyl)-2-oxoethyl]-, 1,1 dimethyl ethyl ester]
HIV-1 Protease % Inhib ([1]; dose 0.123 uM): 54.87% | HIV-1 Protease % Inhib ([1]; dose 0.370 uM): 89.42% | HIV-1 Protease % Inhib ([1]; dose 1.100 uM): 111.38% | HIV-1 Protease % Inhib ([1]; dose 3.300 uM): 113.39% | HIV-1 Protease % Inhib ([1]; dose 10.000 uM): 114.19% | HIV-1 Protease % Inhib ([1]; dose 30.000 uM): 109.5% | Ki [2]: 4.2 nM and 5 nM

CC(C)(C)OC(=O)N[C@@H](Cc1c[nH]cn1)C(=O)Nc1cccc(C(c2c(O)c3c(oc2=O)CCCCCC3)C2CC2)c1 (single isomer, unassigned) [Example 241, Carbamic acid, [2-[[3-(R or S)-[Cyclopropyl(5,6,7,8,9,10-hexahydro-4-hydroxy-2-oxo-2H-cycloocta[b]pyran-3-yl)methyl]phenyl]amino]-1-(S)-(1H-imidazol-4-ylmethyl)-2-oxoethyl]-, 1,1 dimethyl ethyl ester]
HIV-1 Protease % Inhib ([1]; dose 0.123 uM): 81.78% | HIV-1 Protease % Inhib ([1]; dose 0.370 uM): 91.77% | HIV-1 Protease % Inhib ([1]; dose 1.100 uM): 98.65% | HIV-1 Protease % Inhib ([1]; dose 3.300 uM): 101.51% | HIV-1 Protease % Inhib ([1]; dose 10.000 uM): 110.04% | HIV-1 Protease % Inhib ([1]; dose 30.000 uM): 104.34% | Ki [2]: 1.32 nM and 1.9 nM

CCCC(c1cccc(NS(=O)(=O)c2ccc(C#N)cc2)c1)c1c(O)c2c(oc1=O)CCCCCC2 (single isomer, unassigned) [Example 437, (R or S)-Benzenesulfonamide, 4-cyano-N-[3-[1-(5,6,7,8,9,10-hexahydro-4-hydroxy-2-oxo-2H-cycloocta[b]pyran-3-yl)butyl]phenyl]-]
inhibition at 0.123 µM [1]: 68.1% | inhibition at 0.37 µM [1]: 87.1% | inhibition at 1.1 µM [1]: 103% | inhibition at 3.3 µM [1]: 108% | inhibition at 10 µM [1]: 112% | inhibition at 30 µM [1]: 105% | Ki [2]: 2.3 nM

CCCC(c1cccc(NS(=O)(=O)c2ccc(C#N)cc2)c1)c1c(O)c2c(oc1=O)CCCCCC2 (single isomer, unassigned) [Example 439, (R or S)-Benzenesulfonamide, 4-cyano-N-[3-[1-(5,6,7,8,9,10-hexahydro-4-hydroxy-2-oxo-2H-cycloocta[b]pyran-3-yl)butyl]phenyl]-]
HIV-1 Protease % Inhib ([1]; dose 0.123 uM): 60.96% | HIV-1 Protease % Inhib ([1]; dose 0.370 uM): 68.15% | HIV-1 Protease % Inhib ([1]; dose 1.100 uM): 92.17% | HIV-1 Protease % Inhib ([1]; dose 3.300 uM): 92.32% | HIV-1 Protease % Inhib ([1]; dose 10.000 uM): 96.45% | HIV-1 Protease % Inhib ([1]; dose 30.000 uM): 94.26% | Ki [2]: 3 nM

O=c1oc2c(c(O)c1C(c1ccccc1)C1CC1)CCCCCC2 (centres unmarked) [Example 107, 3-(Cyclopropylphenylmethyl)-5,6,7,8,9,10-hexahydro-4-hydroxy-2h-cycloocta[b]pyran-2-one]
inhibition at 1 µM [1]: 90.7% | inhibition at 10 µM [1]: 101% | inhibition at 100 µM [1]: 101% | Ki [2]: 20 nM and 12 nM and 7 nM

CCC(c1ccccc1)c1c(O)c2c(oc1=O)CCCC2 (stereo not drawn) [Example 109, 5,6,7,8-Tetrahydro-4-hydroxy-3-(1-phenylpropyl)-2H-l-benzopyran-2-one]
inhibition at 1 µM [1]: < 10% | inhibition at 10 µM [1]: 71.9% | inhibition at 100 µM [1]: 92% | Ki [2]: 1090 nM

CCC(c1ccccc1)c1c(O)c2c(oc1=O)CCC2 (centres unmarked) [Example 111, 6,7-Dihydro-4-hydroxy-3-(1-phenylpropyl)-cyclopenta[b]pyran-2(5H)-one]
inhibition at 1 µM [1]: 36.5% | inhibition at 10 µM [1]: 94.3% | inhibition at 100 µM [1]: 101% | Ki [2]: 700 nM

O=c1oc2c(c(O)c1C(c1ccccc1)C1CC1)CCCCC2 (centres unmarked) [Example 112, 3-(Cyclopropylphenylmethyl)-6,7,8,9-tetrahydro-4-hydroxy-cyclohepta[b]pyran-2(5H)-one]
inhibition at 1 µM [1]: 70.1% | inhibition at 10 µM [1]: 102% | inhibition at 100 µM [1]: 105% | Ki [2]: 96 nM

O=c1oc2c(c(O)c1C(c1ccccc1)C1CC1)CCCC2 (centres unmarked) [Example 115, 3-(Cyclopropylphenylmethyl)-5,6,7,8-tetraphydro-4-hydroxy-2H-1-benzopyran-2-one]
inhibition at 1 µM [1]: 62.1% | inhibition at 10 µM [1]: 102% | inhibition at 100 µM [1]: 129% | Ki [2]: 177 nM

O=c1oc2c(c(O)c1C(c1ccccc1)C1CC1)CCCCCCCC2 (centres unmarked) [Example 116, 3-(Cyclopropylphenylmethyl)-5,6,7,8,9,10,11,12-octahydro-4-hydroxy-2H-cyclodeca[b]pyran-2-one]
inhibition at 1 µM [1]: 23% | inhibition at 10 µM [1]: 65.7% | inhibition at 100 µM [1]: 102% | Ki [2]: 558 nM

O=c1oc2c(c(O)c1C(c1ccccc1)C1CC1)CCCCCCC2 (centres unmarked) [Example 117, 3-(Cyclopropylphenylmethyl)-6,7,8,9,10,11-hexahydro-4-hydroxy-cyclonona[b]pyran-2(5H)-one]
inhibition at 0.41 µM ([1]; read-out: HIV-1 Protease % Inhib, dose 0.410 uM): 80.1% | inhibition at 1.23 µM ([1]; read-out: HIV-1 Protease % Inhib, dose 1.230 uM): 94% | inhibition at 3.7 µM ([1]; read-out: HIV-1 Protease % Inhib, dose 3.700 uM): 101% | inhibition at 11 µM ([1]; read-out: HIV-1 Protease % Inhib, dose 11.000 uM): 114% | inhibition at 33 µM ([1]; read-out: HIV-1 Protease % Inhib, dose 33.000 uM): 107% | inhibition at 100 µM [1]: 100% | Ki [2]: 37 nM
